≈ marks a conversion by molar mass, not a printed value. Calls of active or inactive are those of the source. The rule behind the calls is not given here.
Columns and labels:
Escherichia coli [1] = experiment: Potentiation of doxycycline-induced antibacterial activity against Escherichia coli ATCC 25922 assessed as concentration required to restore 2 ug/ml doxycycline activity measured after 18 hrs; format: functional
Klebsiella pneumoniae [2] = experiment: Potentiation of doxycycline-induced antibacterial activity against Klebsiella pneumoniae ATCC 700603 assessed as concentration required to restore 2 ug/ml doxycycline activity measured after 18 hrs; format: functional
Pseudomonas aeruginosa [3] = experiment: Potentiation of doxycycline-induced antibacterial activity against Pseudomonas aeruginosa ATCC 27853 assessed as concentration required to restore 2 ug/ml doxycycline activity measured after 18 hrs; format: functional
Acinetobacter baumannii [4] = experiment: Potentiation of doxycycline-induced antibacterial activity against Acinetobacter baumannii ATCC 19606 assessed as concentration required to restore 2 ug/ml doxycycline activity measured after 18 hrs; format: functional, ATCC 19606 = CIP 70.34 = JCM 6841
Klebsiella pneumoniae [5] = experiment: Antibacterial activity against Klebsiella pneumoniae ATCC 700603 measured after 18 hrs by resazurin dye based assay; format: functional; conditions: Klebsiella pneumoniae, 700603, 18 h
Pseudomonas aeruginosa [6] = experiment: Antibacterial activity against Pseudomonas aeruginosa ATCC 27853 measured after 18 hrs by broth dilution method; format: functional; conditions: ATCC 27853, 18 h
Acinetobacter baumannii [7] = experiment: Antibacterial activity against Acinetobacter baumannii ATCC 19606 measured after 18 hrs by resazurin dye based assay; format: functional; conditions: ATCC 19606 = CIP 70.34 = JCM 6841, 18 h
Escherichia coli [8] = experiment: Antibacterial activity against Escherichia coli ATCC 25922 measured after 18 hrs by broth dilution method; format: functional; conditions: ATCC 25922, 18 h
Pseudomonas aeruginosa [9] = experiment: Potentiation of erythromycin-induced antibacterial activity against Pseudomonas aeruginosa ATCC 27853 assessed as concentration required to restore 2 ug/ml erythromycin activity measured after 18 hrs; format: functional
Escherichia coli [10] = experiment: Potentiation of erythromycin-induced antibacterial activity against Escherichia coli ATCC 25922 assessed as concentration required to restore 2 ug/ml erythromycin activity measured after 18 hrs; format: functional
Klebsiella pneumoniae [11] = experiment: Potentiation of erythromycin-induced antibacterial activity against Klebsiella pneumoniae ATCC 700603 assessed as concentration required to restore 2 ug/ml erythromycin activity measured after 18 hrs; format: functional
Acinetobacter baumannii [12] = experiment: Potentiation of erythromycin-induced antibacterial activity against Acinetobacter baumannii ATCC 19606 assessed as concentration required to restore 2 ug/ml erythromycin activity measured after 18 hrs; format: functional, ATCC 19606 = CIP 70.34 = JCM 6841
[13] = system: Staphylococcus intermedius; experiment: Antibacterial activity against Staphylococcus intermedius 1051997 measured after 18 hrs by broth dilution method; format: functional; conditions: Staphylococcus intermedius, 1051997, 18 h
Staphylococcus aureus [14] = experiment: Disruption of membrane integrity in Staphylococcus aureus ATCC 25923 assessed as increase in extracellular ATP level by luciferin-luciferase reagent based luminescence assay; format: functional, organism-based
[15] = (§1) Cytotoxicity against HEK293 cells measured after 20 hrs by resazurin dye based fluorescence assay; format: cell-based, Homo sapiens; conditions: human, HEK293 cells
Pseudomonas aeruginosa [16] = experiment: Disruption of membrane integrity in Pseudomonas aeruginosa PAO1 assessed as decrease in intracellular ATP level at 10 ug/ml by luciferin-luciferase reagent based luminescence assay relative to control; format: functional; design: scale not given: the % may be the effect or the level left
Staphylococcus aureus [17] = experiment: Antibacterial activity against Staphylococcus aureus ATCC 25923 measured after 18 hrs by broth dilution method; format: functional; conditions: ATCC 25923, 18 h
Pseudomonas aeruginosa [18] = experiment: Induction of membrane depolarization in Pseudomonas aeruginosa PAO1 at 10.4 uM measured after 15 mins by DiSC3(5) dye based spectrofluorometric method; format: functional, organism-based
Candida albicans = experiment: Antifungal activity against Candida albicans ATCC 90028 measured after 36 hrs; format: functional; conditions: ATCC 90028, 36 h
Pseudomonas aeruginosa [19] = experiment: Disruption of membrane integrity in Pseudomonas aeruginosa PAO1 assessed as increase in extracellular ATP level by luciferin-luciferase reagent based luminescence assay; format: functional, organism-based
Erythrocyte [20] = experiment: Hemolytic activity against human RBC at 32 ug/ml incubated for 10 mins under shaking condition measured after 1 hr; format: ADME, cell-based
Cryptococcus neoformans = experiment: Antifungal activity against Cryptococcus neoformans ATCC 208821 measured after 36 hrs by resazurin dye based assay; format: functional; conditions: ATCC 208821, 36 h
Klebsiella pneumoniae [21] = experiment: Antibacterial activity against Klebsiella pneumoniae ATCC 700603 at 32 ug/ml measured after 18 hrs by resazurin dye based assay; format: functional, organism-based
Staphylococcus aureus [22] = experiment: Induction of membrane depolarization in Staphylococcus aureus ATCC 25923 at 10.4 uM measured after 15 mins by DiSC3(5) dye based spectrofluorometric method; format: functional, organism-based
Acinetobacter baumannii [23] = experiment: Antibacterial activity against Acinetobacter baumannii ATCC 19606 at 32 ug/ml measured after 18 hrs by resazurin dye based assay; format: functional, organism-based; conditions: ATCC 19606 = CIP 70.34 = JCM 6841
Staphylococcus aureus [24] = experiment: Induction of membrane depolarization in Staphylococcus aureus ATCC 25923 measured after 15 mins by DiSC3(5) dye based spectrofluorometric method; format: functional, organism-based
Erythrocyte [25] = experiment: Hemolytic activity against human RBC incubated for 10 mins under shaking condition measured after 1 hr; format: ADME, cell-based
HEK293 = experiment: as §1; format: cell-based, Homo sapiens; conditions: Homo sapiens, HEK293, 20 h
Acinetobacter baumannii [26] = experiment: Potentiation of chloramphenicol-induced antibacterial activity against Acinetobacter baumannii ATCC 19606 assessed as concentration required to restore 2 ug/ml chloramphenicol activity measured after 18 hrs; format: functional, ATCC 19606 = CIP 70.34 = JCM 6841
Klebsiella pneumoniae [27] = experiment: Potentiation of chloramphenicol-induced antibacterial activity against Klebsiella pneumoniae ATCC 700603 assessed as concentration required to restore 2 ug/ml chloramphenicol activity measured after 18 hrs; format: functional
Escherichia coli [28] = experiment: Potentiation of chloramphenicol-induced antibacterial activity against Escherichia coli ATCC 25922 assessed as concentration required to restore 2 ug/ml chloramphenicol activity measured after 18 hrs; format: functional
Pseudomonas aeruginosa [29] = experiment: Potentiation of chloramphenicol-induced antibacterial activity against Pseudomonas aeruginosa ATCC 27853 assessed as concentration required to restore 2 ug/ml chloramphenicol activity measured after 18 hrs; format: functional
Staphylococcus aureus [30] = experiment: Disruption of membrane integrity in Staphylococcus aureus ATCC 25923 assessed as increase in extracellular ATP level at 10 uL by luciferin-luciferase reagent based luminescence assay; format: functional, organism-based
Pseudomonas aeruginosa [31] = experiment: Disruption of membrane integrity in Pseudomonas aeruginosa PAO1 assessed as increase in extracellular ATP level at 10 uL by luciferin-luciferase reagent based luminescence assay; format: functional, organism-based
Pseudomonas aeruginosa [32] = experiment: Disruption of membrane integrity in Pseudomonas aeruginosa PAO1 assessed as decrease in intracellular ATP level at 1% by luciferin-luciferase reagent based luminescence assay relative to control; format: functional, organism-based; design: scale not given: the % may be the effect or the level left
Pseudomonas aeruginosa [33] = experiment: Potentiation of nalidixic acid-induced antibacterial activity against Pseudomonas aeruginosa ATCC 27853 assessed as concentration required to restore 2 ug/ml nalidixic acid activity measured after 18 hrs; format: functional
Escherichia coli [34] = experiment: Potentiation of nalidixic acid-induced antibacterial activity against Escherichia coli ATCC 25922 assessed as concentration required to restore 2 ug/ml nalidixic acid activity measured after 18 hrs; format: functional
Acinetobacter baumannii [35] = experiment: Potentiation of nalidixic acid-induced antibacterial activity against Acinetobacter baumannii ATCC 19606 assessed as concentration required to restore 2 ug/ml nalidixic acid activity measured after 18 hrs; format: functional, ATCC 19606 = CIP 70.34 = JCM 6841
Klebsiella pneumoniae [36] = experiment: Potentiation of nalidixic acid-induced antibacterial activity against Klebsiella pneumoniae ATCC 700603 assessed as concentration required to restore 2 ug/ml nalidixic acid activity measured after 18 hrs; format: functional

Compound: C[C@H]1c2cccc(O)c2C(=O)C2=C(O)[C@]3(O)C(=O)C(C(N)=O)=C(O)[C@@H](N(C)C)[C@@H]3[C@@H](O)[C@@H]21.O [DOXYCYCLINE]
- Activity (Escherichia coli [1]): 6.25 µM
- Activity (Klebsiella pneumoniae [2]): 6.25 µM
- Activity (Pseudomonas aeruginosa [3]): 12.5 µM
- Activity (Acinetobacter baumannii [4]): 25 µM
- MIC (Klebsiella pneumoniae [5]): 25 µM
- MIC (Pseudomonas aeruginosa [6]): 25 µM
- MIC (Acinetobacter baumannii [7]): 12.5 µM
- MIC (Escherichia coli [8]): 50 µM

Compound: CC[C@H]1OC(=O)[C@H](C)[C@@H](O[C@H]2C[C@@](C)(OC)[C@@H](O)[C@H](C)O2)[C@H](C)[C@@H](O[C@@H]2O[C@H](C)C[C@H](N(C)C)[C@H]2O)[C@](C)(O)C[C@@H](C)C(=O)[C@H](C)[C@@H](O)[C@]1(C)O [ERYTHROMYCIN]
- Activity (Pseudomonas aeruginosa [9]): 200 µM
- Activity (Escherichia coli [10]): 50 µM
- MIC (Klebsiella pneumoniae [5]): > 200 µM
- MIC (Pseudomonas aeruginosa [6]): > 200 µM
- Activity (Klebsiella pneumoniae [11]): 50 µM
- MIC (Acinetobacter baumannii [7]): 200 µM (≈ 147 µg/mL)
- Activity (Acinetobacter baumannii [12]): 25 µM
- MIC (Escherichia coli [8]): > 200 µM

Compound: O=C(NCCCNCCCCNCCCNC(=O)C(=O)c1c[nH]c2cc(Br)ccc12)C(=O)c1c[nH]c2cc(Br)ccc12
- MIC [13]: 3.12 µM (≈ 2.2 µg/mL)
- Activity (Staphylococcus aureus [14]): Dose-dependent effect
- CC50 at 20 h [15]: 5.06 µM
- Activity (Pseudomonas aeruginosa [16]): 10%
- MIC (Staphylococcus aureus [17]): 6.25 µM (≈ 4.39 µg/mL)
- Activity (Pseudomonas aeruginosa [3]): 6.25 µM
- Activity (Pseudomonas aeruginosa [18]): Active
- MIC (Candida albicans): 17.2 µM (≈ 12.1 µg/mL)
- Activity (Pseudomonas aeruginosa [19]): Dose-dependent effect
- Activity (Erythrocyte [20]): Non-Toxic
- MIC (Cryptococcus neoformans): 1.1 µM (≈ 0.773 µg/mL)
- Activity (Klebsiella pneumoniae [21]): inactive
- MIC (Klebsiella pneumoniae [5]): > 34 µM
- Activity (Staphylococcus aureus [22]): Active
- MIC (Pseudomonas aeruginosa [6]): 100 µM (≈ 70.2 µg/mL)
- MIC (Acinetobacter baumannii [7]): > 34 µM
- Activity (Acinetobacter baumannii [23]): inactive
- Activity (Staphylococcus aureus [24]): Dose-dependent effect
- MIC (Escherichia coli [8]): 100 µM (≈ 70.2 µg/mL)
- HC10 (Erythrocyte [25]): > 34 µM

Compound: CC/C(=C(\c1ccccc1)c1ccc(OCCN(C)C)cc1)c1ccccc1 [TAMOXIFEN]
- IC50 (HEK293): 24 µM

Compound: O=C(N[C@H](CO)[C@H](O)c1ccc([N+](=O)[O-])cc1)C(Cl)Cl [CHLORAMPHENICOL]
- Activity (Acinetobacter baumannii [26]): >200 µM
- MIC [13]: 3 to 6 µM (≈ 0.969 to 1.94 µg/mL)
- Activity (Klebsiella pneumoniae [27]): 200 µM
- Activity (Escherichia coli [28]): >200 µM
- MIC (Staphylococcus aureus [17]): 1.5 to 3 µM (≈ 0.485 to 0.969 µg/mL)
- Activity (Pseudomonas aeruginosa [29]): >200 µM
- MIC (Klebsiella pneumoniae [5]): 50 µM (≈ 16.2 µg/mL)
- MIC (Pseudomonas aeruginosa [6]): > 200 µM
- MIC (Acinetobacter baumannii [7]): > 200 µM
- MIC (Escherichia coli [8]): > 200 µM

Compound: Cetyl trimethylammonium bromide
- Activity (Staphylococcus aureus [30]): Active
- Activity (Pseudomonas aeruginosa [31]): Active
- Activity (Pseudomonas aeruginosa [32]): 10%

Compound: CCn1cc(C(=O)O)c(=O)c2ccc(C)nc21 [NALIDIXIC ACID]
- Activity (Pseudomonas aeruginosa [33]): 50 µM
- Activity (Escherichia coli [34]): >200 µM
- Activity (Acinetobacter baumannii [35]): 200 µM
- MIC (Klebsiella pneumoniae [5]): 100 µM (≈ 23.2 µg/mL)
- MIC (Pseudomonas aeruginosa [6]): > 200 µM
- Activity (Klebsiella pneumoniae [36]): 25 µM
- MIC (Acinetobacter baumannii [7]): > 200 µM
- MIC (Escherichia coli [8]): > 200 µM
